Test results taken from PubChem BioAssay (NCI).
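Where inhibition never reached the appropriate level, the endpoint shown equals the highest concentration tested. Otherwise, values were interpolated linearly from a five-concentration, 48-hour dose response in 96-well plates. GI50 is the concentration that inhibits growth by half. TGI denotes the concentration required for complete inhibition of growth.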

Legend:
Test in all cases: NCI anticancer screen, dose series, 48 h
[1] = tested on: SK-MEL-2 melanoma
[2] = tested on: SNB-19 CNS
[3] = tested on: NCI-H522 lung
[4] = tested on: NCI-H23 lung
[5] = tested on: 786-0 renal
[6] = tested on: NCI-H460 lung
[7] = tested on: MALME-3M melanoma
[8] = tested on: SK-MEL-5 melanoma
[9] = tested on: HOP-92 NSCLC
[10] = tested on: RPMI-8226 leukemia
[11] = tested on: PC-3 prostate
[12] = tested on: HCC-2998 colon
[13] = tested on: SW-620 colon
[14] = tested on: NCI-H226 lung
[15] = tested on: OVCAR-3 ovarian
[16] = tested on: U251 CNS
[17] = tested on: SNB-75 CNS
[18] = tested on: OVCAR-5 ovarian
[19] = tested on: SF-268 CNS
[20] = tested on: IGROV1 ovarian
[21] = tested on: A498 renal
[22] = tested on: MDA-MB-435
[23] = tested on: K-562 leukemia
[24] = tested on: BT-549 breast
[25] = tested on: HT29 colon
[26] = tested on: SF-295 CNS
[27] = tested on: SK-MEL-28 melanoma
[28] = tested on: HCT-116 colon
[29] = tested on: UACC-62 melanoma
[30] = tested on: A549 NSCLC

SMILES: C#CCN(C)CCCOc1ccc(N(CC)C(=O)c2cc(C(C)C)c(O)cc2O)cc1Cl
- GI50 [1]: 979 nM
- TGI [1]: 15500 nM
- GI50 [2]: 430 nM
- TGI [2]: 13400 nM
- GI50 [3]: 121 nM
- TGI [3]: 5480 nM
- GI50 [4]: 346 nM
- TGI [4]: 13900 nM
- GI50 [5]: 1370 nM
- TGI [5]: 17400 nM
- GI50 [6]: 68.7 nM
- TGI [6]: 10900 nM
- GI50 [7]: 207 nM
- TGI [7]: 1580 nM
- GI50 [8]: 397 nM
- TGI [8]: 1790 nM
- GI50 [9]: 446 nM
- TGI [9]: 2700 nM
- GI50 [10]: 294 nM
- TGI [10]: 3170 nM
- GI50 [11]: 232 nM
- TGI [11]: 14700 nM
- GI50 [12]: 273 nM
- TGI [12]: 1910 nM
- GI50 [13]: 192 nM
- TGI [13]: 13800 nM
- GI50 [14]: 604 nM
- TGI [14]: 17900 nM
- GI50 [15]: 595 nM
- TGI [15]: 14900 nM
- GI50 [16]: 399 nM
- TGI [16]: 15100 nM
- GI50 [17]: 947 nM
- TGI [17]: 16100 nM
- GI50 [18]: 482 nM
- TGI [18]: 16000 nM
- GI50 [19]: 1660 nM
- TGI [19]: 23900 nM
- GI50 [20]: 193 nM
- TGI [20]: 13600 nM
- GI50 [21]: 679 nM
- TGI [21]: 15500 nM
- GI50 [22]: 174 nM
- TGI [22]: 12000 nM
- GI50 [23]: 91.4 nM
- TGI [23]: 23000 nM
- GI50 [24]: 1750 nM
- TGI [24]: 14300 nM
- GI50 [25]: 2970 nM
- TGI [25]: 13100 nM
- GI50 [26]: 384 nM
- TGI [26]: 12600 nM
- GI50 [27]: 413 nM
- TGI [27]: 12700 nM
- GI50 [28]: 138 nM
- TGI [28]: 13300 nM
- GI50 [29]: 174 nM
- TGI [29]: 793 nM
- GI50 [30]: 146 nM
